A short description of this series: in vitro. Particulars: human, plasma.

One molecule from patent US4311685A, “Assay method and kit” (Burroughs Wellcome Co., priority 1979, dated 1982) can be followed below.

As a reminder, the fraction unbound is free concentration divided by total concentration. A higher fraction unbound goes with weak binding.

As to `CC(C)NCC(O)COc1cccc2ccccc12` (racemic) [propranolol], the fraction unbound at 12 h, 0.07 µM was 0.117.
